Results reported in patent US10376553B2, “Pharmaceutical composition for preventing and treating chronic obstructive lung disease containing, as active ingredient, Magnoliae flos extract, fraction, or active fraction thereof” (KOREA RESEARCH INSTITUTE OF BIOSCIENCE AND BIOTECHNOLOGY, priority 2015, dated 2019).
“And” between values parts separate entries of the source, which are not always exact repeats. Equal values may be shown once.

Key:
Format in all cases: in vivo, C57BL/6N mice
[1] = test system: inflammatory cells in the bronchoalveolar lavage fluid; assay: Inflammatory cells in bronchoalveolar lavage fluid of the COPD mouse model (cigarette smoke + LPS); settings: 10 mg/kg p.o., BALF, vs COPD-induced group
Method: Six-week-old male SPF (specific pathogen-free) C57BL/6N mice (22 to 24 g) were supplied by Koatech (Korea). These animals were fed with a sufficient amount of solid feed (no antibiotics, Samyang Feed Co.) and water until the day of the experiment. They were allowed to adapt for 1 week in a light-dark cycle environment at a temperature of 22±2° C. and a humidity of 55±15%, and then subjected to the experiment.
The animal model was exposed to cigarette smoke to induce chronic obstructive pulmonary disease. 3R4F Kentuchy Reference Cigarettes as standard cigarettes for use to generate cigarette smoke were supplied by University of California (USA). The standard cigarettes contain 9.4 mg of tar, 11 mg of total particle matter (TPM), and 12 mg of carbon monoxide per 1 cigarette. The standard cigarettes were used after harmonization for 48 hours to 72 hours at a temperature of 22±1° C. and a humidity of 60±2%. Further, Cigarette Smoke Generator manufactured by Korea BioLink (Korea) was used for exposure to cigarette smoke. Cigarette smoke was inhaled for 1 hour (8 pcs/hour) for 7 days from 1 hour after oral administration of a sample. 10 μg of LPS (lipopolysaccharide) in PBS 50 μL was injected intranasally to each mouse on the 4th day of the experiment after the mouse was anesthetized with zoletyl 1 hour before the exposure to cigarette smoke. The smoking condition was 8 puffs per 1 standard cigarette (volume: 45 mL, duration: 2 seconds, and interval: 1 time/min).
The active fraction of Magnoliae flos (15, 30 mg/kg) and roflumilast (10 mg/kg) as therapeutic substances were dissolved in 0.5% sodium carboxymethyl cellulose and were orally administered 1 hour before the exposure to cigarette smoke.
The experimental groups were divided into (i) normal control (NC) group; (ii) cigarette smoke+LPS exposure group (COPD); (iii) experimental group administered with roflumilast (ROF) (10 mg/kg, p.o) 1 hour before the exposure to cigarette smoke+LPS; and (iv) experimental group administered with the active fraction of Magnoliae flos (15, 30 mg/kg, p.o; Magnoliae flos 15 and Magnoliae flos 30) 1 hour before the exposure to cigarette smoke+LPS. […] Then, they were administered in the same manner as above.
The bronchial alveolar lavage fluid was separated from the animal model treated with the active fraction and the compounds of Magnoliae flos in <Test Example 6-2> above in the following manner, and the number of inflammatory cells was measured.
Specifically, a mouse sonde was inserted into the bronchial tube, a 1 mL syringe containing 0.7 mL of DPBS (Dulbecco's Phosphate-Buffered Saline) was connected thereto, and DPBS was injected into the lung. The injected DPBS was recovered, and this procedure was repeated twice. The bronchoalveolar lavage fluid separated by DPBS was centrifuged at 1,500 rpm for 15 minutes to make a cell pellet. The supernatant was stored frozen at −70° C. for cytokine analysis. Each cell obtained was suspended in DPBS, attached to a slide glass using a cytospin centrifuge, and Diff-Quik stained. The number of inflammatory cells in each sample was counted through microscopic examination, and the inhibition rate was calculated according to the following Equation 3.
Inhibition rate=(Value of COPD-induced group−value of target substance administered group)×100/(Value of COPD-induced group) [Equation 3]

[2] = test system: infiltration of inflammatory cells in the lung tissue; assay: Lung tissue histopathology (H&E) in the COPD model; settings: vs COPD-induced group
Method: Specifically, the lung was taken out and immediately fixed in a 10% formaldehyde solution, which was then sliced and washed with running water for 8 hours. It was then embedded in […] and Hematoxylin & Eosin stained, and the pathological changes in the lung tissue were examined using an optical microscope.

IL-6 = IL-6 level in BALF of the COPD model (ELISA); settings: vs COPD-induced group
Method: (§1) Cytokines were measured in the cell supernatant obtained in <Test Example 6-3> above by the following method. Specifically, the levels of IL-6 (R & D System, USA) and TNF-α (BD Bioscience, USA) in the separated BALF were measured by enzyme-linked immuno-sorbent assay (ELISA). Each cytokine analysis was carried out according to the manufacturer's test method.

reactive oxygen species = assay: Production of active oxygen species in BALF of the COPD model (DCF-DA); settings: 10 mg/kg p.o., vs COPD-induced group
Method: Production of active oxygen species in the bronchoalveolar lavage fluid obtained in <Test Example 6-3> above was confirmed by the following method.
Specifically, the separated BALF (200 μL) was treated to the final concentration of 20 μM of DCF-DA (dihydrodichlorofluorescein diacetate, Sigma-Aldrich, USA), followed by culturing for 30 minutes and measurement using Fluorescence (Molecular Device, USA). The inhibition rate was calculated by Equation 3 above.

TNF-α = TNF-α level in BALF of the COPD model (ELISA); settings: 10 mg/kg p.o., BALF, vs COPD-induced group
Method: as §1

`O=C(Nc1c(Cl)cncc1Cl)c1ccc(OC(F)F)c(OCC2CC2)c1` [ROF, roflumilast, reference compound] was tested, and the “Inhibition rate of inflammatory cell infiltration (%) Macrophage” value [1] was 36.9 ± 15.0% and 30.6 ± 9.9%, the “Inhibition rate of inflammatory cell infiltration (%) Neutrophil” value [1] was 31.9 ± 7.6% and 37.4 ± 8.3% and the “Inhibition rate of inflammatory cell infiltration (%) Total inflammatory cells” value [1] was 34.9 ± 4.6% and 39.4 ± 7.2%. The “infiltration of inflammatory cells around the alveoli and bronchi (in words)” value [2] was “reduced”, the “IL-6 in the bronchoalveolar lavage fluid (in words)” value (IL-6) was “decreased” and the “Active oxygen inhibition rate (%)” value (reactive oxygen species) was 25.9 ± 4.3%. For the same molecule, the “TNF-α inhibition rate (%)” value (TNF-α) was 44.8 ± 3.8% and 30.8 ± 5.9%.
